Measured values as given in patent US8252748B2, “Peptide derived from neurotensin receptor 3 and use thereof in the treatment of psychiatric diseases” (Centre National de la Recherche Scientifique—CNRS, priority 2007, dated 2012).
No end group written: not given here.

Tests used:
[1] = tested on: mouse (C57Black/J); assay: Forced swimming test (FST); assay type: in vivo
Text: (§1) The inventors conducted three types of behavioral experiments that are regarded as classical for determining the antidepressant activity of a substance (Nestler E. J., Gould E., Manji H., Buncan M., Duman R. S., Greshenfeld H. K., Hen, R. et al. “Preclinical models: status of basic research in depression” Biol Psychiatry. 15, 503-528 (2002) (20) and Cryan, J. & Holmes, A. “The ascent of mouse: advances in modeling human depression and anxiety” Nat Rev Drug Discov. 4, 775-790 (2005) (21)). The effects of the propeptide of the present invention were compared with those of the saline solution in which it is dissolved and with those of fluoxetine, one of the most-used antidepressants in clinical practice. The mouse strain used is C57Black/J strain. TREK-1^−/− mice were also measured in these various tests.
The propeptide is dissolved in 0.9% NaCl saline solution to the desired concentrations: 10^−5 M, 10^−6 M, 10^−7 M and […]. Different volumes are injected depending on the technique used: • intracerebroventricular: 5 μl • intravenous: 100 μl • intraperitoneal: 100 μl
For the ICV injections, a Hamilton syringe (Fisher Bioblock) (trademark) of 10 μl is used, and in the case of IV or IP injections, a needle of 0.45×12 mm is used.
A. Forced Swimming Test (FST) (Cryan & Holmes, 2005 (21)) […]

[2] = tested on: mouse (C57Black/J); assay: Tail suspension test (TST); assay type: in vivo; conditions: IV 100 μl at 1 μM per animal; 30 min after injection
Text: as §1
In the next two tests, the propeptide of the present invention was administered by the IV route at a rate of 100 μl at 1 μM per animal.
B. Tail Suspension Test (TST)
(see Cryan, J. & Holmes, A. (2005) (21) and Ripoll, N., David, D., Dailly, E., Hascoet, M. & Bourin, M. “Antidepressant-like effects in various mice strains in the tail suspension” Behav Brain Res. 143(2:193-200 (2003) (22).)
The experiment, 30 min after injection of the test substance in the mouse, consists of suspending the mouse by the tail by means of an adhesive ribbon and measuring the immobility time for 6 min.

[3] = tested on: C57BL6/J mice; assay: Kainate-induced epileptic seizures; assay type: in vivo, mouse; conditions: IP 100 μl at 10^−5 M; kainate 30 mg/kg IP; 90 minutes after kainate; 10 mice per group (5 in saline group)
Protocol: In this experiment, the mice used were C57BL6/J, […], which received an intraperitoneal injection of 100 μl of physiological saline solution and a “PE 10^−5 M” group, in which the mice received an intraperitoneal injection of 100 μl of a solution containing the peptide of the invention at a concentration of 10^−5M. In each of the experimental groups, epileptic seizures were induced by intraperitoneal injection of 100 μl of kainate at a rate of 30 mg/kg. Observation of the stage of epileptic seizure was carried out 90 minutes after injection of kainate. This was based on observation of the behavior of the mice.
The different stages of epileptic seizure are presented in the document of Tsirka S. E., Gualandris, A., Amaral, D. G., Strickland, S. “Excitotoxin-induced neuronal degeneration and seizure are mediated by tissue plasminogen activator”, Nature, 377: 340-344 (1995) (26).
6 stages are defined for describing the intensity of an epileptic attack: • Stage 1: immobility • Stage 2: movements of the head and of the nape • Stage 3: unilateral clonic activity • Stage 4: bilateral clonic activity • Stage 5: generalized convulsions • Stage 6: death of the animal
Statistical analysis was performed by a two-factor ANOVA test followed by the post-hoc test.

[4] = tested on: C57BL6/J mice; assay: Focal ischemia (middle cerebral artery occlusion), infarct size; assay type: in vivo, mouse; conditions: daily IP 100 μl at 10^−5 M for a week, vs physiological saline
Protocol: The model used for inducing a CVA is that of focal ischemia, which consists of occlusion of the middle cerebral artery with a thread (Heurteaux C., Laigle, C., Blondeau, N., Jarretou, G., Lazdunski, M. “Alpha-linolenic acid and riluzole treatment confer cerebral protection and improve survival after focal brain ischemia” Neuroscience, 137: 241-251 (2006) (27). The size of the infarcts caused by this focal ischemia was measured after staining brain sections with cresyl violet. The infarct is measured by tracing the contour of the infarct zone by an image analysis system (Olympus DP Soft) according to the method described in Heurteaux et al., 2006 (27). The brains of C57BL6/J mice (at the rate of 10 mice per experimental group) are treated for a week with a daily intraperitoneal injection of 100 μl of a solution containing either the peptide of sequence ID No. 2 at a concentration of 10^−5M (“PE 10^−5M” group), or with a solution of physiological saline solution (“PHYS SALINE” group). The values were compared between the two groups.
(§2) The difference was evaluated using the Student t test.

[5] = tested on: C57BL6/J mice; assay: Intake of food and drinking water after long-term treatment; assay type: in vivo, mouse; conditions: daily IP 100 μl at 10^−5 M for 15 days; 6 and 72 hours after end of treatment
Protocol: The intake of food and of drinking water was also measured. Two experimental groups of C57BL6/J mice (n=10 per group) were used: the first group received an intraperitoneal injection daily for 15 days of 100 μl of physiological saline solution (“PHYS SALINE”), the second group received an intraperitoneal injection daily for 15 days of 100 μl of a solution containing the peptide of sequence ID No. 2 at a concentration of 10^−5M (“PE 10^−5 M”).
These measurements were taken 6 and 72 hours after the end of long-term treatment.
as §2

APLPRWSGPIGVSWGLR [propeptide, APLPRWSGPIGVSWGLR]
effect on immobility time ([1]; ICV, IV or IP injection, 30 min after injection): comparable to those produced by fluoxetine | crossing of the blood-brain barrier (BBB) ([1]; inferred from activity by intravenous or intraperitoneal as well as central route): easily crosses the blood-brain barrier | effect on immobility time [2]: comparable to those produced by fluoxetine | number of animals that reached stage 5 (generalized convulsions) [3]: 2 animals | size of the infarct caused by focal ischemia [4]: does not have a significant effect | food intake [5]: does not have a significant effect | intake of drinking water [5]: no significant difference
